This is an account of results in US10092613B2 (NATUREX, S.A., priority 2008, dated 2018).

Each structure is given as a SMILES string.

A short description of series [1]: Urinary excretion of CGA and metabolites after 400 mg green coffee extract, ten volunteers. The format is in vivo, human. Particulars: both, human, in vivo. Here is the method:
(§1) In a further phase of the study, ten non-smoker volunteers (22-55 y), five male and five female, were recruited. Subjects were instructed to avoid consumption of phenolic-containing foods during the 48 h prior to the study. They were asked to eat only animal foods, refined cereal foods and artificial beverages. On the day of the study, after 10-12 h overnight fasting, an I.V. catheter was inserted into the antecubital vein and a baseline heparinized blood sample was obtained. […] Blood samples were collected into heparin-containing tubes. Baseline blood aliquots were used to determine hematocrit and hemoglobin levels by standard methods. Plasma samples were obtained by centrifugation of the blood samples immediately after being drawn. Urine samples were also collected at baseline interval (minus 2-0 h) and at intervals of 0-2 h; 2-4 h; 4-6 h and 6-8 h after coffee consumption into appropriate plastic containers. Total urine volume was measured for each collection period. Plasma and urine aliquots for determination of CGA were acidified with HCl and kept frozen in liquid nitrogen until analyses. Urine aliquots for determination of creatinine were acidified with HCl and kept at −20° C. until analyses.
(§2) Results of CGA and phenolic acids in urine were normalized by creatinine excretion.

In series [2] the test system is Glc-6-Pase. As to conditions: intact rat microsomes; cited from earlier work.
The target of series [3] is T1, Glc-6-Pase (Rattus norvegicus, UniProt P43428).
T1 construct: host or cells: rat microsomes (liver)
T1 sequence (P43428 1-357): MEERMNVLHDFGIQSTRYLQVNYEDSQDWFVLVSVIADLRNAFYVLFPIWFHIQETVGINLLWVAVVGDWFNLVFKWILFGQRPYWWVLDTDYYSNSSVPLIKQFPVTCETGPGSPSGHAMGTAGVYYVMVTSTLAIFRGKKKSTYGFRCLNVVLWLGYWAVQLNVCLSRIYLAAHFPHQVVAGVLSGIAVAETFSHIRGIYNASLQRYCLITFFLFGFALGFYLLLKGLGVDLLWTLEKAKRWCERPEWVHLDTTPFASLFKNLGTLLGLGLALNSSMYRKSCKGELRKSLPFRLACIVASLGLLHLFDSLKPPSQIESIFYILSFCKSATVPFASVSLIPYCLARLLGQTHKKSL
Particulars: fully disrupted microsomes; cited from earlier work.

A short description of series [4]: Plasma pharmacokinetics of CGA and metabolites after 400 mg green coffee extract, ten volunteers. The format is in vivo, human.
From the text: as §1, with “Subjects were instructed to avoid consumption of phenolic-containing foods during the 48 h prior to the study.” left out, “beverages.” for “beverages. On the day of the study, after 10-12 h overnight fasting, an I.V. catheter was inserted into the antecubital vein and a baseline heparinized blood sample was obtained.”
as §2

The target in series [5] is T2, hepatic Glc-6-Pase system (Homo sapiens, UniProt O43826).
T2 construct: Glc-6-Pase hydrolysis in intact human liver microsomes; tissue BD Biosciences; host or cells: pooled human liver microsomes, intact
T2 sequence (O43826 1-429): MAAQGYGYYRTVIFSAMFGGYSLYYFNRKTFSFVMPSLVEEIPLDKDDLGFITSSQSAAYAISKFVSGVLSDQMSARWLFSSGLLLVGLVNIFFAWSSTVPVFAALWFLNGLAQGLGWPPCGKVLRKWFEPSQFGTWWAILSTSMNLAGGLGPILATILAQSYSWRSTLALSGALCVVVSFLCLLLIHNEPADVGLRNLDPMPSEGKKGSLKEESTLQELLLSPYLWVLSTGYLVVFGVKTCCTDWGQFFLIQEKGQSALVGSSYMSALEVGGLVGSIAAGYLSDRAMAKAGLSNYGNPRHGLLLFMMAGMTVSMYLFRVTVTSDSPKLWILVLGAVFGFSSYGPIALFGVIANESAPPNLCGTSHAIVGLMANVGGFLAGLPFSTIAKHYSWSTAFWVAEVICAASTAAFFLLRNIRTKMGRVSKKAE
Nature of the series: Glc-6-Pase hydrolysis in intact human liver microsomes (phosphate release). The format is biochemical. As for the experimental part:
A secondary purpose of Example 8 was to determine the inhibitory effects of a series of structurally-related compounds in the extract, such as caffeoylquinic acids and caffeoylferuloylquinic acids. Example 8 tested whether the extract could inhibit the hepatic Glc-6-Pase system by measuring enzymatic activity in human liver microsomes. These experiments were conducted with or without the extract at final CGA concentrations of 0.2, 0.4 and 0.6 mM. The effect of the extract on Glc-6-Pase activity was tested as a function of […] substrate concentration (2-10 mM).
Measurement of Glc-6-Pase Activity in Microsomes: Microsomal Glc-6-Pase activity was measured on the basis of the rate of release of phosphate under the assay conditions that were described by Wallert et al., Kinetic analysis of glucose-6-phosphatase: an investigative approach to carbohydrate metabolism and kinetics. Biochem. Mol. Biol. Educ. 2001, 29, 199-203. The enzyme assays were performed at 37° C. in a final volume of […] containing 100 mM cacodylic acid, pH 6.5 and concentrations of the substrate […] ranging from 2 to 10 mM.
The reaction was started by adding intact microsomes and was stopped with the addition of 3.2 mL of colorimetric reagent [9 volumes of molybdate (0.42% ammonium molybdate in 1 N H2SO4), 2 volumes of 5% SDS and 1 volume of 10% ascorbic acid, freshly prepared and stored on ice for a maximum of 6 h]. All samples were incubated for 30 minutes at 45° C., and the absorbance of the phosphate-molybdate complex was measured at 820 nm.
Microsomal intactness was quantified by measuring Man-6-Pase activity. Anion, W J. Measurement of intactness of rat liver endoplasmic reticulum. Methods Enzymol. 1989, 174, 58-67. In a preliminary study, Glc-6-Pase activity in intact human liver microsomes was determined on the basis of microsomal protein concentration and incubation time to obtain optimal experimental conditions, that is, 100 μg of microsomal proteins and 5 minutes of incubation (data not shown). Quantification was performed at optimal wavelengths (330 nm) for the CGAs during chromatographic separation. Samples were filtered (0.45 μm), and 2 μL was injected directly. The standard deviation for three analyses of the same sample was <5% for all compounds.
Preparation of Test Compounds: Stock solutions of test compounds were prepared in ultrapure water (pH 6.5) and diluted with assay reagent to the final concentrations.
Enzymatic activity was expressed as micromoles of phosphate released per minute per milligram of protein. Results were expressed as means±standard deviation (SD) of three independent experiments. Percentage of inhibition of Glc-6 Pase system activity was calculated by dividing the initial rate of reaction in microsomes that were treated with individual compounds by the initial rate of reaction in untreated microsomes. […] Statistical analysis was performed using an ANOVA test followed by a post hoc Tukey test under a normality assumption (Shapiro Wilk) or Kruskall Wallis nonparametric test followed by Bonferroni adjusted Mann-Whitney test otherwise; p<0.05 was considered to be significant. […]
In general terms: Microsomes from liver hold many membrane-bound enzymes, among them those of drug oxidation.

The mark [6] stands for this setting: plasma, 400 mg green coffee extract oral, mean ± SD, n = 10.

One may read the AUC as the area under the concentration-time curve, a measure of exposure. One may read the Cmax as the maximum level reached in the sampled fluid or tissue. What is called Tmax is the time at which the peak concentration occurs. As for `O=C(C=Cc1ccc(O)c(O)c1)OC1CC(O)(C(=O)O)CC(O)C1O` (stereo not shown) [5-CQA, 5-caffeoylquinic acid], the “content in baseline urine, variation among the subjects” value in series [1] is given as “up to 0.35 μmol”. Besides, the “inhibition of Glc-6-Pase” value in series [2] was “inhibits Glc-6-Pase”. In addition, the “inhibition of Glc-6-Pase” value in series [3] is on record as “no effect”. In series [4] (mean values of plasma AUC), the “contribution to AUC of total phenolic compounds in plasma” value turned out to be 31.3%. Also, in series [4] (setting [6]), the area under the curve (AUC) came out at 17.9 ± 15.3 µM·h, the peak concentration (Cmax) is 5.9 ± 4.2 µM and the Tmax turned out to be 3.3 ± 2.4 h. Besides, the “molar ratio 5-CQA:4-CQA:3-CQA in plasma” value in series [4] (ratios of AUC in plasma) worked out at 6.0. In series [5] (each compound at its naturally occurring concentration in 0.6 mM extract, 2 mM substrate), the “Percentage inhibition of G6Pase” value amounted to 9.2 ± 1.4%. Besides, the “Contribution to Glc-6-Pase system inhibition by the green coffee extract” value in series [5] (inhibition of compound divided by inhibition of 0.6 mM total CGAs from the extract) came out at 25%.
